Measured values: patent US20220098197A1, “SALTS OF HETEROCYCLIC COMPOUND AND USE THEREOF” (priority 2019, published 2022)

What was measured:
LPS-induced ALI mice [1] = assay: LPS-induced ALI model: albumin in BALF; format: in vivo, Balb/c mice; conditions: CT-NA 10 mg/kg (P<0.05) and 30 mg/kg (P<0.01), Dex 1 mg/kg (P<0.01); 24 hrs after LPS
Description: (§1) Evans Blue was a dye that could quickly bind to albumin and was remains restricted within blood vessels because the endothelium was impermeable to albumin under normal physiological conditions. Pulmonary microvascular permeability was assessed by measuring the extravasation of Evans blue dye in the lungs. The method was briefly described as follows. The mice were randomly divided into control group (12 mice) and LPS group (48 mice). The LPS group (48 mice) was further divided into four subgroups (each subgroup contains 12 mice). To measure pulmonary microvascular permeability, the unanaesthetized mice of LPS group received intragastric instillation of NS, CT-NA at 10 mg/kg or 30 mg/kg, or Dex at 1 mg/kg respectively. One hour later, the anaesthetized mice were intratracheally instilled with NS (control group) and LPS (all LPS subgroups) at 10 μl/10 g of body weight. […] And then the absorbance of the Evans blue dye extracted in the supernatant was measured against formamide blank at 620 nm via standard curve method, and expressed as microgram of dye per 100 mg of wet lung weight. In addition, the concentration of albumin in BALF was measured at 628 nm using a spectrophotometer and an albumin measurement kit. The albumin concentration ratio assessed from BALF represented not only the albumin level but also the permeability of the pulmonary microvascular.

LPS-induced ALI mice [2] = assay: LPS-induced ALI model: pulmonary vascular permeability by Evans blue dye; format: in vivo, Balb/c mice; conditions: CT-NA 10 mg/kg (P<0.05) or 30 mg/kg (P<0.01), Dex 1 mg/kg (P<0.01)
Description: as §1

CS-induced ALI mice [3] = assay: CS-induced lung injury model: partial pressure of oxygen (PO2); format: in vivo, Balb/c mice; conditions: CT-NA 10 and 30 mg/kg intragastric; 24 hrs after last CS exposure; p<0.01
Description: Specific pathogen-free (SPF) female Balb/c mice (22-28 g; aged 8 weeks) were purchased from Shanghai SIPPR-BK Experimental Animal Co., Ltd. […] Model preparation: The mice were randomly divided into 5 groups (12 mice in each group), which were the control group (the mice were exposed to fresh air), the saline group (the mice were exposed to cigarette smoke), dexamethasone (Dex) group (1 mg/kg) (the mice were exposed to cigarette smoke), CT-NA 10 mg/kg group and CT-NA 30 mg/kg group (the mice were exposed to cigarette smoke). According to the grouping, the mice were intragastrically administered saline, Dex and CT-NA, respectively. Thereafter, the mice were exposed to fresh air or cigarette smoke generated from 3R4F research-grade cigarettes (containing about 600 mg TPM/m^3 and 29.9 mg nicotine/m^3) in a cuboid plastic box (65×50x×45 cm). Ten cigarettes were burned every day for seven days. After one cigarette was burned, the next cigarette was ignited. The daily body weight and general condition of the mice were checked. 24 hrs after the last exposure to the cigarette smoke, the partial pressure of oxygen (PO2) of all mice was measured by the Moor VMS-OXY™ measuring instrument, which was used to measure the oxygenated/deoxygenated hemoglobin concentration and oxygen saturation (percentage) in the microcirculation at the wavelength range of 500 to 650 nm. […]

CS-induced ALI mice [4] = assay: CS-induced lung injury model: albumin assay in BALF; format: in vivo, Balb/c mice; conditions: CT-NA 10 and 30 mg/kg intragastric; CS exposure; p<0.01
Description: Model preparation: The mice were randomly divided into 5 groups (12 mice in each group), which were the control group (the mice were exposed to fresh air), the saline group (the mice were exposed to cigarette smoke), dexamethasone (Dex) group (1 mg/kg) (the mice were exposed to cigarette smoke), CT-NA 10 mg/kg group and CT-NA 30 mg/kg group (the mice were exposed to cigarette smoke). According to the grouping, the mice were intragastrically administered saline, Dex and CT-NA, respectively. Thereafter, the mice were exposed to fresh air or cigarette smoke generated from 3R4F research-grade cigarettes (containing about 600 mg TPM/m^3 and 29.9 mg nicotine/m^3) in a cuboid plastic box (65×50x×45 cm). Ten cigarettes were burned every day for seven days. After one cigarette was burned, the next cigarette was ignited. The daily body weight and general condition of the mice were checked. 24 hrs after the last exposure to the cigarette smoke, the partial pressure of oxygen (PO2) of all mice was measured by the Moor VMS-OXY™ measuring instrument, which was used to measure the oxygenated/deoxygenated hemoglobin concentration and oxygen saturation (percentage) in the microcirculation at the wavelength range of 500 to 650 nm. […] The albumin concentration ratio assessed from BALF represented not only the albumin level but also the permeability of the pulmonary microvascular.

neutrophils = assay: PGD2-induced neutrophils migration in vitro, Boyden chamber (Example 2); format: cell-based, mice; conditions: pretreatment CT-NA 1 μM or 10 μM, OC459 10 μM; 4 hrs; P<0.01
Description: The method for isolating neutrophils and testing effect of CT-NA on neutrophils migration was briefly described as follows. 1.5% glycogen was injected intragastrically into mice at a dose of 20 ml/kg body weight. 4 hrs later, the mice were euthanized to isolate neutrophils from the peritoneal lavage. Effect of CT-NA on the migration of neutrophils was detected using the Boyden chamber assay kit (3 um pore size, Billerica, Mass.). PGD2 was used as a chemoattractant because the activated PGD2/CRTH2 receptors promoted the neutrophils migration. Firstly, the isolated neutrophils were inoculated at 4×10^5 cells/ml into the upper side of well of the Boyden chamber, and the lower chamber contained different concentrations of PGD2 (0.1, 1 and 10 μM), and the neutrophils were allowed to migrate towards PGD2 for 4 hrs at 37° C. in order to find out the suitable PGD2 concentration. After evaluation of the suitable PGD2 concentration, the migration of neutrophils pretreated with CT-NA (1 and 10 μM) and OC459 (10 μM), another effective CRTH2 inhibitor, toward PGD2 (1 μM) was assessed for 4 hrs.

[5] = system: isolated peritoneal macrophages; assay: Cell viability (MTT) assay with LPS/PGD2, peritoneal macrophages; format: cell-based, mice

With `CN([C@@H]1CCc2c(CC(=O)[O-])c3cccnc3n2C1)S(=O)(=O)c1ccc(F)cc1.[Na+]` [Sodium salt hydrate] as the compound, how does the “albumin content in BALF” value (LPS-induced ALI mice [1]) read?
The value was “considerably reduced”.

What about the “LPS-induced pulmonary vascular leakage and extravasation of Evans Blue dye” value (LPS-induced ALI mice [2]) of the same compound?
The value was “significantly reduced”.

And the “partial pressure of oxygen (PO2)” value (CS-induced ALI mice [3])?
The value was “significantly elevated”.

And the BALF albumin contents (CS-induced ALI mice [4])?
Its BALF albumin contents is “remarkably reduced”.

And the “neutrophils migration induced by 1 μM PGD2” value (neutrophils)?
The value was “significantly reduced”.

What about the “cytotoxicity (MTT), LPS plus CT-NA” value ([5]; LPS (100 ng/ml) plus CT-NA up to 100 μM) of the same compound?
The value was “non-toxic”.

And the “cytotoxicity (MTT), PGD2 plus CT-NA” value ([5]; PGD2 (10 μM) plus CT-NA up to 100 μM)?
Its value is “non-toxic”.
